Test system: brown marmorated stink bug (BMSB), Halyomorpha halys
Test: Field trials of experimental pheromone constituents, baited black pyramid traps
Type: in vivo
Excerpt: Field Bioassays. Field Trials of Experimental Pheromone Constituents: Pyramid traps based on dimensions previously used for native stink bugs (Leskey and Hogmire 2005, Hogmire and Leskey 2006) and for brown marmorated stink bugs (Leskey et al. 2012c) were used for all trials. […] Each panel was 1.22 m high, 52 cm wide at the base, and 7 cm wide at the top. Collection jars were constructed based on previously published dimensions (Hogmire and Leskey 2006) with internal cone opening of 1.6 cm with trimmed wire edging to reduce escape. In addition, a Hercon Vaportape™ II (Hercon Environmental, Emigsville, Pa.) was added as a killing agent to prevent escape from traps. In a preliminary study, addition of a killing agent increased trap captures ˜250%. Traps were deployed ˜5 meters from the border of apple and pear orchards at the Appalachian Fruit Research Station or in the border area between wood lots and row crops in Kearneysville, W. Va., Shepherdstown, W. Va., Keedysville, Md., and Beltsville, Md. Traps were spaced ˜50 meters apart. Traps were baited with compounds identified from headspace collections of male BMSB, synthesized and formulated into gray rubber septa or left unbaited.
Fourteen trials were conducted between 19 Apr. to 20 Oct. 2011 (Table 3) and four trials between 20 Mar. to 10 Oct. 2012 (Table 4). Traps were checked a minimum of twice weekly and the treatments were re-randomized at each collection.
All adults and nymphs were removed from traps and recorded. Hercon Vaportape™ strips were changed at four week intervals and lures were changed at two week intervals. Comparisons of adult and nymphal captures used the SAS GLM procedure to evaluate effect of treatment and replicate followed by Tukey's HSD if the model was significant. Appropriate transformations were used to stabilize normality if needed. The effect of sex was dropped from all models because it was never a significant factor.

[1] = AFRS 2011, Trial One, 19 April-10 May
[2] = AFRS 2011, Trial Seven, 8-19 August
[3] = AFRS 2011, Trial Ten, 19 Sept.-4 Oct.
[4] = Beltsville 2011, Trial One, 19 April-10 May

CCC\C=C/C=C/C=C/C(=O)OC [Lure #3, Methyl (2E,4E,6Z)-decatrienoate]
Mean number BMSB adults (±SE) captured [1]: 0.00 ± 0.00 per trap per sample
Mean number BMSB nymphs (±SE) captured [1]: 0.00 ± 0.00 per trap per sample
Mean number BMSB adults (±SE) captured [2]: 1.97 ± 0.37a per trap per sample
Mean number BMSB nymphs (±SE) captured [2]: 34.55 ± 5.85a per trap per sample
Mean number BMSB adults (±SE) captured [3]: 22.76 ± 4.41a per trap per sample
Mean number BMSB nymphs (±SE) captured [3]: 1.24 ± 0.34a per trap per sample
Mean number BMSB adults (±SE) captured [4]: 0.02 ± 0.02ab per treatment
Mean number BMSB nymphs (±SE) captured [4]: 0.00 ± 0.00 per treatment

From patent US9451771B2, “Compositions and methods to attract the brown marmorated stink bug (BMSB), Halyomorpha halys” (United States of America as Represented by the Secretary of …, priority 2012, dated 2016)
